Assay results from US20200017495A1, “NOVEL HETEROCYCLIC COMPOUNDS AND THEIR USE IN PREVENTING OR TREATING BACTERIAL INFECTIONS” (priority 2017, published 2020).

Key:
[1] = test system: Enterobacter aerogenes (EAE) isolates; test: MIC of compounds alone and combined with antibacterials, broth microdilution (CLSI); assay type: cell-based
How it was run: (§1)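 First, log-phase suspensions are brought to 5.10^5 CFU/mL final in ca-MHB; plates then incubate 16-20 h at 35° C in air. Growth is judged visually, giving the compound MIC alone and the antibacterial MIC at each compound concentration.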

[2] = test system: Enterobacter cloacae (ECL) isolates; test: as above; assay type: cell-based
How it was run: as §1

`C=CC1=C(C(=O)O)N2C(=O)[C@@H](NC(=O)/C(=N\OCC(=O)O)c3csc(N)n3)[C@H]2SC1` [FIX, Cefixime] was tested, and the “MIC ATB in combination” value ([1]; EAE 49469, AF2 @ 8 μg/mL) was under 0.25 µg/mL, the “MIC ATB in combination” value ([1]; EAE 49469, AF3 @ 8 μg/mL) was under 0.25 µg/mL and the “MIC ATB in combination” value ([1]; EAE 49469, CLA @ 4 μg/mL) was over 128 µg/mL. The “MIC ATB in combination” value ([1]; EAE 200261, AF2 @ 8 μg/mL) was 8 µg/mL, the “MIC ATB in combination” value ([1]; EAE 200261, AF3 @ 8 μg/mL) was under 0.25 µg/mL and the “MIC ATB in combination” value ([1]; EAE 200261, CLA @ 4 μg/mL) was over 128 µg/mL. The “MIC ATB in combination” value ([1]; EAE UFR199, AF2 @ 8 μg/mL) was 0.5 µg/mL, the “MIC ATB in combination” value ([1]; EAE UFR199, AF3 @ 8 μg/mL) was “<=0.25 μg/mL” and the “MIC ATB in combination” value ([1]; EAE UFR199, CLA @ 4 μg/mL) was 16 µg/mL. The “MIC ATB in combination” value ([1]; EAE UFR201, AF2 @ 8 μg/mL) was under 0.25 µg/mL, the “MIC ATB in combination” value ([1]; EAE UFR201, AF3 @ 8 μg/mL) was under 0.25 µg/mL and the “MIC ATB in combination” value ([1]; EAE UFR201, CLA @ 4 μg/mL) was “<=0.25 μg/mL”. The “MIC ATB in combination” value ([1]; EAE UFR202, AF2 @ 8 μg/mL) was 16 µg/mL, the “MIC ATB in combination” value ([1]; EAE UFR202, AF3 @ 8 μg/mL) was 4 µg/mL and the “MIC ATB in combination” value ([1]; EAE UFR207, AF2 @ 8 μg/mL) was under 0.25 µg/mL. The “MIC ATB in combination” value ([1]; EAE UFR207, AF3 @ 8 μg/mL) was under 0.25 µg/mL, the “MIC ATB in combination” value ([1]; EAE UFR207, CLA @ 4 μg/mL) was 1 µg/mL and the “MIC ATB in combination” value ([1]; EAE UFR213, AF2 @ 8 μg/mL) was 16 µg/mL. For the same molecule, the “MIC ATB in combination” value ([1]; EAE UFR213, AF3 @ 8 μg/mL) was “<=0.25 μg/mL”, the MIC ([1]; strain EAE 49469, genotype AmpC) was over 128 µg/mL and the MIC ([1]; strain EAE 200261, genotype TEM-x, AmpC) was over 128 µg/mL. It also gave an MIC ([1]; strain EAE UFR199, compound alone) of over 1024 µg/mL, an MIC ([1]; strain EAE UFR199, genotype TEM-1b, SHV-12, KPC-2, OXA-9) of over 1024 µg/mL and an MIC ([1]; strain EAE UFR201, genotype TEM-1, SHV-12, CTX-M-15) of over 128 µg/mL. The MIC ([1]; strain EAE UFR202, genotype TEM-24) was over 128 µg/mL, the MIC ([1]; strain EAE UFR213, genotype TEM-24) was over 128 µg/mL and the “MIC ATB in combination” value ([2]; ECL 2185D, AF2 @ 8 μg/mL) was over 128 µg/mL. For the same molecule, the “MIC ATB in combination” value ([2]; ECL 2185D, AF3 @ 8 μg/mL) was over 128 µg/mL, the “MIC ATB in combination” value ([2]; ECL 2185D, CLA @ 4 μg/mL) was over 128 µg/mL and the “MIC ATB in combination” value ([2]; ECL 190310, AF2 @ 8 μg/mL) was over 128 µg/mL. For the same molecule, the “MIC ATB in combination” value ([2]; ECL 190310, AF3 @ 8 μg/mL) was 64 µg/mL, the “MIC ATB in combination” value ([2]; ECL 190310, CLA @ 4 μg/mL) was over 128 µg/mL and the “MIC ATB in combination” value ([2]; ECL 190408, AF2 @ 8 μg/mL) was under 0.25 µg/mL. For the same molecule, the “MIC ATB in combination” value ([2]; ECL 190408, AF3 @ 8 μg/mL) was under 0.25 µg/mL, the “MIC ATB in combination” value ([2]; ECL 190408, CLA @ 4 μg/mL) was 128 µg/mL and the “MIC ATB in combination” value ([2]; ECL 200138, AF2 @ 8 μg/mL) was over 128 µg/mL. The “MIC ATB in combination” value ([2]; ECL 200138, AF3 @ 8 μg/mL) was over 128 µg/mL, the “MIC ATB in combination” value ([2]; ECL 200138, CLA @ 4 μg/mL) was over 128 µg/mL and the “MIC ATB in combination” value ([2]; ECL 200322, AF2 @ 8 μg/mL) was “<=0.25 μg/mL”. For the same molecule, the “MIC ATB in combination” value ([2]; ECL 200322, AF3 @ 8 μg/mL) was under 0.25 µg/mL, the “MIC ATB in combination” value ([2]; ECL 200322, CLA @ 4 μg/mL) was 64 µg/mL and the “MIC ATB in combination” value ([2]; ECL 260033, AF2 @ 8 μg/mL) was over 128 µg/mL. For the same molecule, the “MIC ATB in combination” value ([2]; ECL 260033, AF3 @ 8 μg/mL) was over 128 µg/mL, the “MIC ATB in combination” value ([2]; ECL 260033, CLA @ 4 μg/mL) was over 128 µg/mL and the “MIC ATB in combination” value ([2]; ECL 260253, AF2 @ 8 μg/mL) was under 0.25 µg/mL. The “MIC ATB in combination” value ([2]; ECL 260253, AF3 @ 8 μg/mL) was “<=0.25 μg/mL”, the “MIC ATB in combination” value ([2]; ECL 260253, CLA @ 4 μg/mL) was 64 µg/mL and the “MIC ATB in combination” value ([2]; ECL 260323, AF2 @ 8 μg/mL) was under 0.25 µg/mL. For the same molecule, the “MIC ATB in combination” value ([2]; ECL 260323, AF3 @ 8 μg/mL) was under 0.25 µg/mL, the “MIC ATB in combination” value ([2]; ECL 260323, CLA @ 4 μg/mL) was over 128 µg/mL and the “MIC ATB in combination” value ([2]; ECL 260508, AF2 @ 8 μg/mL) was under 0.25 µg/mL. For the same molecule, the “MIC ATB in combination” value ([2]; ECL 260508, AF3 @ 8 μg/mL) was “<=0.25 μg/mL”, the “MIC ATB in combination” value ([2]; ECL 260508, CLA @ 4 μg/mL) was 32 µg/mL and the “MIC ATB in combination” value ([2]; ECL HAN, AF2 @ 8 μg/mL) was over 128 µg/mL. The “MIC ATB in combination” value ([2]; ECL HAN, AF3 @ 8 μg/mL) was over 128 µg/mL, the “MIC ATB in combination” value ([2]; ECL HAN, CLA @ 4 μg/mL) was over 128 µg/mL and the “MIC ATB in combination” value ([2]; ECL NEM146383, AF2 @ 8 μg/mL) was over 128 µg/mL. For the same molecule, the “MIC ATB in combination” value ([2]; ECL NEM146383, AF3 @ 8 μg/mL) was 16 µg/mL, the “MIC ATB in combination” value ([2]; ECL NEM146383, CLA @ 4 μg/mL) was over 128 µg/mL and the “MIC ATB in combination” value ([2]; ECL P99, AF2 @ 8 μg/mL) was 4 µg/mL. For the same molecule, the “MIC ATB in combination” value ([2]; ECL P99, AF3 @ 8 μg/mL) was 8 µg/mL, the “MIC ATB in combination” value ([2]; ECL P99, CLA @ 4 μg/mL) was over 128 µg/mL and the “MIC ATB in combination” value ([2]; ECL UFR12, AF2 @ 8 μg/mL) was “<=0.25 μg/mL”. The “MIC ATB in combination” value ([2]; ECL UFR12, AF3 @ 8 μg/mL) was “<=0.25 μg/mL”.
